{"source": "patent US20230151025A1", "about": "“SUBSTITUTED THIAZOLOPYRIDINES, SALTS THEREOF AND THEIR USE AS HERBICIDALLY ACTIVE SUBSTANCES” (Bayer Aktiengesellschaft, priority 2020, published 2023)", "data": [{"system": "Echinochloa crus-galli (ECHCG)", "assay": "Herbicidal post-emergence action (D), 320 g/ha", "type": "in vivo", "settings": "ca. 3 weeks", "method_in_brief": "(§1)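 Seedlings reaching the single-leaf stage 2 to 3 weeks after sowing in sandy loam received a foliar spray of the formulated compound (WP or EC, 0.5% additive, 600 l water/ha). Damage is rated visually after about 3 weeks in the greenhouse as percent effect relative to untreated plants.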", "units": {"herbicidal effect ECHCG": "%"}, "values": [{"smiles": "CC(C)c1cc2scnc2nc1-c1ccccc1F", "note": "[Example I-184]", "herbicidal effect ECHCG": 80}]}, {"system": "Amaranthus retroflexus (AMARE)", "assay": "Herbicidal post-emergence action (D), 320 g/ha", "type": "in vivo", "settings": "ca. 3 weeks", "method_in_brief": "as §1", "units": {"herbicidal effect AMARE": "%"}, "values": [{"smiles": "CC(C)c1cc2scnc2nc1-c1ccccc1F", "note": "[Example I-184]", "herbicidal effect AMARE": 80}]}, {"system": "Alopecurus myosuroides (ALOMY)", "assay": "Herbicidal post-emergence action (D), 320 g/ha", "type": "in vivo", "settings": "ca. 3 weeks", "method_in_brief": "as §1", "units": {"herbicidal effect ALOMY": "%"}, "values": [{"smiles": "CC(C)c1cc2scnc2nc1-c1ccccc1F", "note": "[Example I-184]", "herbicidal effect ALOMY": 90}]}, {"system": "Veronica persica (VERPE)", "assay": "Herbicidal post-emergence action (D), 320 g/ha", "type": "in vivo", "settings": "ca. 3 weeks", "method_in_brief": "as §1", "units": {"herbicidal effect VERPE": "%"}, "values": [{"smiles": "CC(C)c1cc2scnc2nc1-c1ccccc1F", "note": "[Example I-184]", "herbicidal effect VERPE": 90}]}, {"system": "Setaria viridis (SETVI)", "assay": "Herbicidal post-emergence action (D), 320 g/ha", "type": "in vivo", "settings": "ca. 3 weeks", "method_in_brief": "as §1", "units": {"herbicidal effect SETVI": "%"}, "values": [{"smiles": "CC(C)c1cc2scnc2nc1-c1ccccc1F", "note": "[Example I-184]", "herbicidal effect SETVI": 90}]}, {"system": "Polygonum convolvulus (POLCO)", "assay": "Herbicidal post-emergence action (D), 320 g/ha", "type": "in vivo", "settings": "ca. 3 weeks", "method_in_brief": "as §1", "units": {"herbicidal effect POLCO": "%"}, "values": [{"smiles": "CC(C)c1cc2scnc2nc1-c1ccccc1F", "note": "[Example I-184]", "herbicidal effect POLCO": 80}]}, {"system": "Echinochloa crus-galli (ECHCG)", "assay": "Herbicidal pre-emergence action (A), 1280 g/ha", "type": "in vivo", "settings": "visual grading after ca. 3 weeks vs untreated controls, 100% = plants have died off, 0% = as control plants", "method_in_brief": "(§2)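 Visual grading of plant damage in percent (0% as untreated control, 100% dead) was done about 3 weeks after treatment. Compounds, as WP or EC in water with 0.5% additive, had been sprayed at 600 l/ha onto the covering soil of freshly sown sandy loam pots.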", "units": {"ECHCG, herbicidal effect in percent (%)": "%"}, "values": [{"smiles": "CC(C)c1cc2scnc2nc1-c1ccccc1F", "note": "[Example I-184]", "ECHCG, herbicidal effect in percent (%)": 100}]}, {"system": "Amaranthus retroflexus (AMARE)", "assay": "Herbicidal pre-emergence action (A), 1280 g/ha", "type": "in vivo", "settings": "visual grading after ca. 3 weeks vs untreated controls", "method_in_brief": "as §2", "units": {"herbicidal effect AMARE": "%"}, "values": [{"smiles": "CC(C)c1cc2scnc2nc1-c1ccccc1F", "note": "[Example I-184]", "herbicidal effect AMARE": 90}]}, {"system": "Kochia scoparia (KCHSC; Bassia scoparia)", "assay": "Herbicidal pre-emergence action (A), 1280 g/ha", "type": "in vivo", "settings": "visual grading after ca. 3 weeks vs untreated controls", "method_in_brief": "as §2", "units": {"herbicidal effect KCHSC": "%"}, "values": [{"smiles": "CC(C)c1cc2scnc2nc1-c1ccccc1F", "note": "[Example I-184]", "herbicidal effect KCHSC": 90}]}, {"system": "Alopecurus myosuroides (ALOMY)", "assay": "Herbicidal pre-emergence action (A), 1280 g/ha", "type": "in vivo", "settings": "visual grading after ca. 3 weeks vs untreated controls, 100% = plants have died off, 0% = as control plants", "method_in_brief": "as §2", "units": {"ALOMY, herbicidal effect in percent (%)": "%"}, "values": [{"smiles": "CC(C)c1cc2scnc2nc1-c1ccccc1F", "note": "[Example I-184]", "ALOMY, herbicidal effect in percent (%)": 90}]}, {"system": "Lolium rigidum (LOLRI)", "assay": "Herbicidal pre-emergence action (A), 1280 g/ha", "type": "in vivo", "settings": "visual grading after ca. 3 weeks vs untreated controls, 100% = plants have died off, 0% = as control plants", "method_in_brief": "as §2", "units": {"LOLRI, herbicidal effect in percent (%)": "%"}, "values": [{"smiles": "CC(C)c1cc2scnc2nc1-c1ccccc1F", "note": "[Example I-184]", "LOLRI, herbicidal effect in percent (%)": 100}]}, {"system": "Veronica persica (VERPE)", "assay": "Herbicidal pre-emergence action (A), 1280 g/ha", "type": "in vivo", "settings": "visual grading after ca. 3 weeks vs untreated controls", "method_in_brief": "as §2", "units": {"herbicidal effect VERPE": "%"}, "values": [{"smiles": "CC(C)c1cc2scnc2nc1-c1ccccc1F", "note": "[Example I-184]", "herbicidal effect VERPE": 90}]}, {"system": "Poa annua (POAAN)", "assay": "Herbicidal pre-emergence action (A), 1280 g/ha", "type": "in vivo", "settings": "visual grading after ca. 3 weeks vs untreated controls, 100% = plants have died off, 0% = as control plants", "method_in_brief": "as §2", "units": {"POAAN, herbicidal effect in percent (%)": "%"}, "values": [{"smiles": "CC(C)c1cc2scnc2nc1-c1ccccc1F", "note": "[Example I-184]", "POAAN, herbicidal effect in percent (%)": 100}]}, {"system": "Setaria viridis (SETVI)", "assay": "Herbicidal pre-emergence action (A), 1280 g/ha", "type": "in vivo", "settings": "visual grading after ca. 3 weeks vs untreated controls", "method_in_brief": "as §2", "units": {"herbicidal effect SETVI": "%"}, "values": [{"smiles": "CC(C)c1cc2scnc2nc1-c1ccccc1F", "note": "[Example I-184]", "herbicidal effect SETVI": 100}]}, {"system": "Stellaria media (STEME)", "assay": "Herbicidal pre-emergence action (A), 1280 g/ha", "type": "in vivo", "settings": "visual grading after ca. 3 weeks vs untreated controls", "method_in_brief": "as §2", "units": {"herbicidal effect STEME": "%"}, "values": [{"smiles": "CC(C)c1cc2scnc2nc1-c1ccccc1F", "note": "[Example I-184]", "herbicidal effect STEME": 90}]}, {"system": "Matricaria inodora (MATIN)", "assay": "Herbicidal pre-emergence action (A), 1280 g/ha", "type": "in vivo", "settings": "visual grading after ca. 3 weeks vs untreated controls", "method_in_brief": "as §2", "units": {"herbicidal effect MATIN": "%"}, "values": [{"smiles": "CC(C)c1cc2scnc2nc1-c1ccccc1F", "note": "[Example I-184]", "herbicidal effect MATIN": 90}]}, {"system": "Echinochloa crus-galli (ECHCG)", "assay": "Herbicidal post-emergence action (B), 1280 g/ha", "type": "in vivo", "settings": "rated visually after about 3 weeks vs untreated controls", "method_in_brief": "(§3)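 Greenhouse-grown weeds at the one-leaf stage received a foliar spray of the formulated compound (WP or EC, 0.5% additive, 600 L/ha). Damage was scored visually after about 3 weeks on a 0–100% scale against untreated plants.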", "units": {"herbicidal activity ECHCG": "%"}, "values": [{"smiles": "CC(C)c1cc2scnc2nc1-c1ccccc1F", "note": "[Example I-184]", "herbicidal activity ECHCG": 90}]}, {"system": "Amaranthus retroflexus (AMARE)", "assay": "Herbicidal post-emergence action (B), 1280 g/ha", "type": "in vivo", "settings": "rated visually after about 3 weeks vs untreated controls", "method_in_brief": "as §3", "units": {"herbicidal activity AMARE": "%"}, "values": [{"smiles": "CC(C)c1cc2scnc2nc1-c1ccccc1F", "note": "[Example I-184]", "herbicidal activity AMARE": 100}]}, {"system": "Kochia scoparia (KCHSC; Bassia scoparia)", "assay": "Herbicidal post-emergence action (B), 1280 g/ha", "type": "in vivo", "settings": "not given", "method_in_brief": "as §3", "units": {"herbicidal effect KCHSC": "%"}, "values": [{"smiles": "CC(C)c1cc2scnc2nc1-c1ccccc1F", "note": "[Example I-184]", "herbicidal effect KCHSC": 90}]}, {"system": "Veronica persica (VERPE)", "assay": "Herbicidal post-emergence action (B), 1280 g/ha", "type": "in vivo", "settings": "not given", "method_in_brief": "as §3", "units": {"herbicidal effect VERPE": "%"}, "values": [{"smiles": "CC(C)c1cc2scnc2nc1-c1ccccc1F", "note": "[Example I-184]", "herbicidal effect VERPE": 90}]}, {"system": "Poa annua (POAAN)", "assay": "Herbicidal post-emergence action (B), 1280 g/ha", "type": "in vivo", "settings": "rated visually after about 3 weeks vs untreated controls", "method_in_brief": "as §3", "units": {"herbicidal activity POAAN": "%"}, "values": [{"smiles": "CC(C)c1cc2scnc2nc1-c1ccccc1F", "note": "[Example I-184]", "herbicidal activity POAAN": 90}]}, {"system": "Stellaria media (STEME)", "assay": "Herbicidal post-emergence action (B), 1280 g/ha", "type": "in vivo", "settings": "not given", "method_in_brief": "as §3", "units": {"herbicidal effect STEME": "%"}, "values": [{"smiles": "CC(C)c1cc2scnc2nc1-c1ccccc1F", "note": "[Example I-184]", "herbicidal effect STEME": 90}]}, {"system": "Echinochloa crus-galli (ECHCG)", "assay": "Herbicidal pre-emergence action (C), 320 g/ha", "type": "in vivo", "settings": "ca. 3 weeks", "method_in_brief": "(§4)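 Sandy loam pots, seeds covered with soil → WP/EC compound sprayed on soil surface (aq., +0.5% additive, 600 l/ha) → greenhouse, optimum growth → visual herbicidal effect (%) at ca. 3 wk vs untreated.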", "units": {"herbicidal effect ECHCG": "%"}, "values": [{"smiles": "CC(C)c1cc2scnc2nc1-c1ccccc1F", "note": "[Example I-184]", "herbicidal effect ECHCG": 100}]}, {"system": "Amaranthus retroflexus (AMARE)", "assay": "Herbicidal pre-emergence action (C), 320 g/ha", "type": "in vivo", "settings": "ca. 3 weeks", "method_in_brief": "as §4", "units": {"herbicidal effect AMARE": "%"}, "values": [{"smiles": "CC(C)c1cc2scnc2nc1-c1ccccc1F", "note": "[Example I-184]", "herbicidal effect AMARE": 90}]}, {"system": "Alopecurus myosuroides (ALOMY)", "assay": "Herbicidal pre-emergence action (C), 320 g/ha", "type": "in vivo", "settings": "ca. 3 weeks", "method_in_brief": "as §4", "units": {"herbicidal effect ALOMY": "%"}, "values": [{"smiles": "CC(C)c1cc2scnc2nc1-c1ccccc1F", "note": "[Example I-184]", "herbicidal effect ALOMY": 100}]}, {"system": "Lolium rigidum (LOLRI)", "assay": "Herbicidal pre-emergence action (C), 320 g/ha", "type": "in vivo", "settings": "ca. 3 weeks", "method_in_brief": "as §4", "units": {"herbicidal effect LOLRI": "%"}, "values": [{"smiles": "CC(C)c1cc2scnc2nc1-c1ccccc1F", "note": "[Example I-184]", "herbicidal effect LOLRI": 100}]}, {"system": "Veronica persica (VERPE)", "assay": "Herbicidal pre-emergence action (C), 320 g/ha", "type": "in vivo", "settings": "ca. 3 weeks", "method_in_brief": "as §4", "units": {"herbicidal effect VERPE": "%"}, "values": [{"smiles": "CC(C)c1cc2scnc2nc1-c1ccccc1F", "note": "[Example I-184]", "herbicidal effect VERPE": 80}]}, {"system": "Setaria viridis (SETVI)", "assay": "Herbicidal pre-emergence action (C), 320 g/ha", "type": "in vivo", "settings": "ca. 3 weeks", "method_in_brief": "as §4", "units": {"herbicidal effect SETVI": "%"}, "values": [{"smiles": "CC(C)c1cc2scnc2nc1-c1ccccc1F", "note": "[Example I-184]", "herbicidal effect SETVI": 100}]}, {"system": "Viola tricolor (VIOTR)", "assay": "Herbicidal pre-emergence action (C), 320 g/ha", "type": "in vivo", "settings": "ca. 3 weeks", "method_in_brief": "as §4", "units": {"herbicidal effect VIOTR": "%"}, "values": [{"smiles": "CC(C)c1cc2scnc2nc1-c1ccccc1F", "note": "[Example I-184]", "herbicidal effect VIOTR": 80}]}, {"system": "Matricaria inodora (MATIN)", "assay": "Herbicidal pre-emergence action (C), 320 g/ha", "type": "in vivo", "settings": "ca. 3 weeks", "method_in_brief": "as §4", "units": {"herbicidal effect MATIN": "%"}, "values": [{"smiles": "CC(C)c1cc2scnc2nc1-c1ccccc1F", "note": "[Example I-184]", "herbicidal effect MATIN": 80}]}]}
